Test results published in patent US7230023B2, “Water-soluble triazole fungicide” (Sankyo Company, Limited, priority 2001, dated 2007).
Values after ≈ are worked out from the molar mass of the structure shown.

Columns and labels:
[1] = system: Aspergillus fumigatus SANK 10569; test: Antifungal activity against Aspergillus, MIC by broth microdilution; assay type: cell-based; conditions: SANK10569, RPMI1640 pH 7.0, 30° C., 24-72 hours, at least 80% growth inhibition, read-out: MIC values A.f.
Protocol: (§1) The antifungal activities of compound A were assessed according to the minimum inhibitory concentrations (MICs) which were measured by the methods described below:
Determination of antifungal activity against Aspergillus: MICs were determined by the broth microdilution method. Test compound was dissolved in DMSO. Serial two-fold dilution of the test compound was performed with DMSO, and then the final dilution was performed with RPMI1640 medium (product of Dainippon Pharmaceutical Co., Ltd.) which was buffered to pH 7.0 with 0.165M MOPS. […] Colonies of the test fungi were suspended in physiological saline followed by adjustment to about 1.0×10^4 cells/ml with RPMI1640 medium which was buffered to pH 7.0 with 0.165M MOPS. 100 μl of the fungal suspension and 100 μl of each diluted test compound solution were mixed in each well of microtitre plates, before incubating at 30° C. for 24-72 hours. […] The MICs were defined as the lowest compound concentrations causing at least 80% growth inhibition when compared with the control.

[2] = system: Candida albicans TIMM 3165; test: Antifungal activity against Candida, MIC by broth microdilution; assay type: cell-based; conditions: TIMM3165, RPMI1640 pH 7.0, 35° C., 24-72 hours, at least 80% growth inhibition, read-out: MIC values C.a. (3)
Protocol: as §1
(§2) Determination of antifungal activity against Candida: The MICs were determined by the broth microdilution method. Test compound was dissolved in dimethyl sulfoxide (DMSO). Serial two-fold dilution of the test compound was performed with DMSO, and then the final dilution was performed with RPMI1640 medium (product of Dainippon Pharmaceutical Co., Ltd.) which was buffered to pH 7.0 with 0.165M 3-(morpholino)propanesulfonic acid (MOPS). […] Colonies of the test fungi were suspended in physiological saline followed by adjustment to 5.0×10^2 to 2.5×10^3 cells/ml with RPMI1640 medium which was buffered to pH 7.0 with 0.165M MOPS. 100 μl of the fungal suspension and 100 μl of each diluted test compound solution were mixed in each well of microtitre plates, before incubating at 35° C. for 24-72 hours. […] The MICs were defined as the lowest compound concentrations causing at least 80% growth inhibition when compared with the control.

[3] = system: Candida albicans TIMM 3164; test: as above; assay type: cell-based; conditions: TIMM3164, RPMI1640 pH 7.0, 35° C., 24-72 hours, at least 80% growth inhibition, read-out: MIC values C.a. (2)
Protocol: as §1, §2

[4] = system: Candida albicans ATCC 64550; test: as above; assay type: cell-based; conditions: ATCC64550, RPMI1640 pH 7.0, 35° C., 24-72 hours, at least 80% growth inhibition, read-out: MIC values C.a. (1)
Protocol: as §1, §2

[5] = system: Cryptococcus neoformans TIMM 0362; test: Antifungal activity against Cryptococcus neoformans, MIC by broth microdilution; assay type: cell-based; conditions: TIMM0362, yeast nitrogen base medium pH 7.0, 35° C., 48-72 hours, at least 50% growth inhibition, absorbance at 485 nm, read-out: MIC values C.n.
Protocol: as §1
Determination of antifungal activity against Cryptococcus neoformans: MICs were determined by the broth microdilution method. Test compound was dissolved in DMSO. Serial two-fold dilution of the test compound was performed with DMSO, and the final dilution was performed with yeast nitrogen base medium (product of Difco Laboratories) buffered to pH 7.0 with 0.165M MOPS. […] Colonies of the test fungi were suspended in physiological saline followed by adjustment to 5.0×10^3 to 2.5×10^4 cells/ml with yeast nitrogen base medium buffered to pH 7.0 with 0.165M MOPS. 100 μl of the fungal suspension and 100 μl of each diluted test compound solution were mixed in each well of microtitre plates, before incubating at 35° C. for 48-72 hours. […] The MICs were defined as the lowest compound concentrations causing at least 50% growth inhibition when compared with the control as measured by light absorbance at 485 nm.

[6] = system: human liver microsome preparation; test: Test to confirm formation of active substance: incubation with human liver microsome preparation, HPLC; assay type: in vitro ADME; conditions: human liver microsome preparation 0.5 mg protein/ml, initial concentration 1 μM, 37° C.
Protocol: The test compound was dissolved in a human liver microsome preparation (0.5 mg protein/ml, GENTEST Corporation) at an intial concentration of 1 μM and the mixture was incubated at 37° C.
A small aliquot of the sample was collected at certain time intervals, and the rate of persistence of the original compound and the rate of formation of compound A, the active substance with the chemical structure shown below, were determined by HPLC.
The results of incubating the compound of Example 5 (the disodium salt of example number 5-16) with the human liver microsome preparation are shown in FIG. 1.

C[C@@H](S[C@H]1CO[C@H](/C=C/C=C/c2ccc(C#N)cc2F)OC1)[C@](O)(Cn1cncn1)c1ccc(F)cc1F [Compound A]
MIC [1]: 0.031 µg/mL (≈ 0.0571 µM) | MIC [2]: 0.063 µg/mL (≈ 0.116 µM) | MIC [3]: ≤ 0.008 µg/mL | MIC [4]: 0.25 µg/mL (≈ 0.461 µM) | MIC [5]: ≤ 0.008 µg/mL

C[C@@H](S[C@H]1CO[C@H](/C=C/C=C/c2ccc(C#N)cc2F)OC1)[C@@](Cn1cncn1)(OC(=O)c1cc(C#N)ccc1COP(=O)([O-])[O-])c1ccc(F)cc1F.[Na+].[Na+] [Example 5, Disodium 4-cyano-2-[[(1R,2R)-2-[[trans-2-[(1E,3E)-4-(4-cyano-2-fluorophenyl)-1,3-butadienyl]-1,3-dioxan-5-yl]thio]-1-(2,4-difluorophenyl)-1-[(1H-1,2,4-triazol-1-yl)methyl]propoxy]carbonyl]benzyl phosphate]
rate of persistence of the original compound [6]: diminished immediately after the incubation started | rate of formation of compound A (active substance) ([6]; after incubation for 30 min): completely converted to compound A
